Test results taken from patent publication US7109354B2, “Thiophene amidines, compositions thereof, and methods of treating complement-mediated diseases and conditions” (3-Dimensional Pharmaceuticals, Inc., priority 2002, dated 2006).
pKi: −log10 of the molar value. Counter-ions that a name gives are not always drawn.

Target: T1, Activated human C1s (Homo sapiens, UniProt P09871)
T1 construct: purchased Calbiochem (La Jolla, Calif.)
T1 sequence (P09871 438-688 limits assumed): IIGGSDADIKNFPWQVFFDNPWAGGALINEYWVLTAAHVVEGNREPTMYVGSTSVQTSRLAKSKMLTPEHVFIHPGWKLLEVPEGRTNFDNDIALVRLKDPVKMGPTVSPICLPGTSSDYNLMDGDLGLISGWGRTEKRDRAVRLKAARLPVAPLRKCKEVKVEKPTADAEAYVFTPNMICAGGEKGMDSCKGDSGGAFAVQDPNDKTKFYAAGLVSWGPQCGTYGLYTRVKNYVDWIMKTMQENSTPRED
T1 sequence (P09871 16-437 partner limits assumed): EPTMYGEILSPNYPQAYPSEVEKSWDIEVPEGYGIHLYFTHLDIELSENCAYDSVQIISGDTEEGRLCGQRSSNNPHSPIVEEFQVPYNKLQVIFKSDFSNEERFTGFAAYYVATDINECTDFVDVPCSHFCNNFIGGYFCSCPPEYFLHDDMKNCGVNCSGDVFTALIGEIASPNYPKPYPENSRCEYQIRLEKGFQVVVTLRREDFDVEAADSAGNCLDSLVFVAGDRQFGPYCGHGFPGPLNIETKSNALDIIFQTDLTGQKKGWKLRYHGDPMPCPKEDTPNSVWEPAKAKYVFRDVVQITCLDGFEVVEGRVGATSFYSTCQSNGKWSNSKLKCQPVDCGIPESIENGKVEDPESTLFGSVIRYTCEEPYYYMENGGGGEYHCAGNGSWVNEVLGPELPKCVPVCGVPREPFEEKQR
Assay: In vitro inhibition of C1s (Ki determination, C1s-catalyzed hydrolysis of Z-Gly-Arg-S-Bzl, DTNB readout)
Assay type: biochemical
Conditions: substrate Z-Gly-Arg-S-Bzl 45 μM, DTNB 200 μM, C1s 2.3 nM, pH 7.5, 37° C., absorbance at 405 nm

pKi	Compound
7.64 to 8.22	COc1cc(C)c(-c2cccc(S(=O)(=O)c3cc(C(=N)N)sc3SC)c2)c(NC(=O)CSCCC(=O)O)c1 [Example 252, 3-{[3′-(5-Carbamimidoyl-2-methylsulfanyl-thiophene-3-sulfonyl)-4-methoxy-6-methyl-biphenyl-2-ylcarbamoyl]-methylsulfanyl}-propionic acid trifluoroacetate]
7.64 to 8.22	COc1cc(C)c(-c2cccc(S(=O)(=O)c3cc(C(=N)N)sc3SC)c2)c(NC(=O)CS(C)(=O)=O)c1 [Example 254, N-[3′-(5-Carbamimidoyl-2-methylsulfanyl-thiophene-3-sulfonyl)-4-methoxy-6-methyl-biphenyl-2-yl]-2-methanesulfonyl-acetamide trifluoroacetate]
7.64 to 8.22	COc1cc(C)c(-c2cccc(S(=O)(=O)c3cc(C(=N)N)sc3SC)c2)c(NC(=O)CCCCCS(C)(=O)=O)c1 [Example 255, 6-Methanesulfonyl-hexanoic acid[3′-(5-carbamimidoyl-2-methylsulfanyl-thiophene-3-sulfonyl)-4-methoxy-6-methyl-biphenyl-2-yl]-amide trifluoroacetate]
7.64 to 8.22	COc1cc(C)c(-c2cccc(S(=O)(=O)c3cc(C(=N)N)sc3SC)c2)c(NC(=O)CCS(C)(=O)=O)c1 [Example 256, N-[3′-(5-Carbamimidoyl-2-methylsulfanyl-thiophene-3-sulfonyl)-4-methoxy-6-methyl-biphenyl-2-yl]-3-methanesulfonyl-propionamide trifluoroacetate]
7.64 to 8.22	CSc1sc(C(=N)N)cc1S(=O)(=O)c1cccc(-c2c(C)cccc2NC(=O)CS(C)(=O)=O)c1 [Example 257, N-[3′-(5-Carbamimidoyl-2-methylsulfanyl-thiophene-3-sulfonyl)-6-methyl-biphenyl-2-yl]-2-methanesulfonyl-acetamide trifluoroacetate]
7.64 to 8.22	CSc1sc(C(=N)N)cc1S(=O)(=O)c1cccc(-c2c(C)cccc2NC(=O)C(C)S(C)(=O)=O)c1 (stereo not drawn) [Example 258, N-[3′-(5-Carbamimidoyl-2-methylsulfanyl-thiophene-3-sulfonyl)-6-methyl-biphenyl-2-yl]-2-methanesulfonyl-propionamide trifluoroacetate]
7.64 to 8.22	CSc1sc(C(=N)N)cc1S(=O)(=O)c1cccc(-c2c(C)cc(NC(=N)N)cc2NC(=O)CCCS(C)(=O)=O)c1 [Example 260, N-[3′-(5-Carbamimidoyl-2-methylsulfanyl-thiophene-3-sulfonyl)-4-guanidino-6-methyl-biphenyl-2-yl]-4-methanesulfonyl-butyramide bis-trifluoroacetate]
7.64 to 8.22	CSc1sc(C(=N)N)cc1S(=O)(=O)c1cccc(-c2c(C)cc(NC(=N)N)cc2NC(=O)CCCCC(=O)O)c1 [Example 261, 5-[3′-(5-Carbamimidoyl-2-methylsulfanyl-thiophene-3-sulfonyl)-4-guanidino-6-methyl-biphenyl-2-ylcarbamoyl]-pentanoic acid bis-trifluoroacetate]
7.64 to 8.22	CSc1sc(C(=N)N)cc1S(=O)(=O)c1cccc(-c2ccc(N(C)C(=N)N)cc2C)c1 [Example 262, 4-[2′-Methyl-4′-(N-methyl-guanidino)-biphenyl-3-sulfonyl]-5-methylsulfanyl-thiophene-2-carboxamidine bis-trifluoroacetate]
7.64 to 8.22	CSc1sc(C(=N)N)cc1S(=O)(=O)c1cccc(-c2ccc(NC(=N)NCCCCCC(=O)O)cc2C)c1 [Example 263, 6-{N′-[3′-(5-Carbamimidoyl-2-methylsulfanyl-thiophene-3-sulfonyl)-2-methyl-biphenyl-4-yl]-guanidino}-hexanoic acid]
7.64 to 8.22	CSc1sc(C(=N)N)cc1S(=O)(=O)c1cc(Br)c2c(c1)ncn2Cc1cc(F)ccc1F [Example 275, 4-[7-Bromo-1-(2,5-difluoro-benzyl)-1H-benzoimidazole-5-sulfonyl]-5-methylsulfanyl-thiophene-2-carboxamidine trifluoroacetate]
7.64 to 8.22	CSc1sc(C(=N)N)cc1S(=O)(=O)c1cccc(-c2ccc(NC(N)=NCCCc3ccccc3)cc2C)c1 [Example 280, 4-{2′-Methyl-4′-[N′-(3-phenyl-propyl)-guanidino]-biphenyl-3-sulfonyl}-5-methylsulfanyl-thiophene-2-carboxamidine bistrifluoroacetate]
7.64 to 8.22	CSc1sc(C(=N)N)cc1S(=O)(=O)c1cccc(-c2ccc(NC(=N)NCCC(C)C)cc2C)c1 [Example 282, 4-{2′-Methyl-4′-[N′-(3-methyl-butyl)-guanidino]-biphenyl-3-sulfonyl}-5-methylsulfanyl-thiophene-2-carboxamidine bistrifluoroacetate]
7.64 to 8.22	CSc1sc(C(=N)N)cc1S(=O)(=O)c1cccc(-c2c(C)cc(NC(=N)N)cc2NC(=O)CCCCCCCCCCC(=O)O)c1 [Example 295, 11-[3′-(5-Carbamimidoyl-2-methylsulfanyl-thiophene-3-sulfonyl)-4-guanidino-6-methyl-biphenyl-2-ylcarbamoyl]-undecanoic acid bis-trifluoroacetate]
7.64 to 8.22	CSc1sc(C(=N)N)cc1S(=O)(=O)c1cccc(-c2ccc(NC(=O)NCCCS(C)(=O)=O)cc2C)c1 [Example 296, 4-{4′-[3-(3-Methanesulfonyl-propyl)-ureido]-2′-methyl-biphenyl-3-sulfonyl}-5-methylsulfanyl-thiophene-2-carboxamidine trifluoroacetate]
7.64 to 8.22	CSc1sc(C(=N)N)cc1S(=O)(=O)c1cccc(-c2ccc(NC(=N)N)cc2C)c1 [Example 314, 4-(4′-Guanidino-2′-methyl-biphenyl-3-sulfonyl)-5-methylsulfanyl-thiophene-2-carboxamidine bis-trifluoroacetate]
7.64 to 8.22	CO/N=C(\N)Nc1ccc(-c2cccc(S(=O)(=O)c3cc(C(=N)N)sc3SC)c2)c(C)c1 [Example 315, 4-[2′-Methyl-4′-(N′-methoxyl-guanidino)-biphenyl-3-sulfonyl]-5-methylsulfanyl-thiophene-2-carboxamidine bis-trifluoroacetate]

Compound	pKi
CSc1sc(C(=N)N)cc1S(=O)(=O)c1cccc(-c2c(C)cc(NC(=O)NCCCS(C)(=O)=O)cc2NC(=O)NCCCS(C)(=O)=O)c1 [Example 294, 4-{4′,6′-Bis-[3-(3-methanesulfonyl-propyl)-uredo]-2′-methyl-biphenyl-3-sulfonyl}-5-methylsulfanyl-thiophene-2-carboxamidine trifluoroacetate]	7.64 to 8.22
